The source of these data is ChEMBL document CHEMBL1201862, “PubChem BioAssay data set” (2004).

What all share (format): functional
Test [1] has as its target Serine/threonine-protein kinase MRCK alpha (Homo sapiens, UniProt Q5VT25).
The target of test [2] is STE20-like serine/threonine-protein kinase (Homo sapiens, UniProt Q9H2G2).
The target in test [3] is Cyclin-dependent kinase 5 (Homo sapiens, UniProt Q00535).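 Further: CDK5 measured as one member of a kinase profiling panel.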
Test [4] addresses Serine/threonine-protein kinase TAO1 (Homo sapiens, UniProt Q7L7X3).
Test [5] has as its target MAP kinase-interacting serine/threonine-protein kinase 2 (Homo sapiens, UniProt Q9HBH9).
Test [6] concerns the target Serine/threonine-protein kinase BRSK1 (Homo sapiens, UniProt Q8TDC3).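 Further: measured within a kinome-wide kinase panel, with the target listed as KIAA1811.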
The next test has as its target LIM domain kinase 1 (Homo sapiens, UniProt P53667). Kind of test: Navigating the Kinome. Panel member name: LIMK1.
Test [7] has as its target Mitogen-activated protein kinase kinase kinase kinase 4 (Homo sapiens, UniProt O95819).
Test [8] has as its target Serine/threonine-protein kinase PAK 1 (Homo sapiens, UniProt Q13153).
Test [9] has as its target Mitogen-activated protein kinase kinase kinase kinase 5 (Homo sapiens, UniProt Q9Y4K4).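 Further: measured as one member of a kinome-spanning kinase panel.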
The target of test [10] is Serine/threonine-protein kinase DCLK1 (Homo sapiens, UniProt O15075).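 Further: affinity for DCLK1 (listed as DCAMKL1) measured as one member of a kinome-wide kinase profiling panel.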
The target of test [11] is Serine/threonine-protein kinase pim-1 (Homo sapiens, UniProt P11309).
Serine/threonine-protein kinase pim-1, sequence (P11309 whole entry): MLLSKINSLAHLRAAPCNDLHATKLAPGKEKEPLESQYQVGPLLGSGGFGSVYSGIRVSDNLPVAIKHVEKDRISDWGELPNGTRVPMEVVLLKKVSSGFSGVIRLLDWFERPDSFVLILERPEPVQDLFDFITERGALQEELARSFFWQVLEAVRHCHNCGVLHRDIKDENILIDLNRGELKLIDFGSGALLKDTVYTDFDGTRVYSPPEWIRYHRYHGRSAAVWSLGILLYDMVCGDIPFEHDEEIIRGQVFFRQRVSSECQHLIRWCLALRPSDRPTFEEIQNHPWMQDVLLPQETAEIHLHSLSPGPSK
In test [12] the target is Interleukin-1 receptor-associated kinase 4 (Homo sapiens, UniProt Q9NWZ3).
Interleukin-1 receptor-associated kinase 4, sequence (Q9NWZ3 whole entry): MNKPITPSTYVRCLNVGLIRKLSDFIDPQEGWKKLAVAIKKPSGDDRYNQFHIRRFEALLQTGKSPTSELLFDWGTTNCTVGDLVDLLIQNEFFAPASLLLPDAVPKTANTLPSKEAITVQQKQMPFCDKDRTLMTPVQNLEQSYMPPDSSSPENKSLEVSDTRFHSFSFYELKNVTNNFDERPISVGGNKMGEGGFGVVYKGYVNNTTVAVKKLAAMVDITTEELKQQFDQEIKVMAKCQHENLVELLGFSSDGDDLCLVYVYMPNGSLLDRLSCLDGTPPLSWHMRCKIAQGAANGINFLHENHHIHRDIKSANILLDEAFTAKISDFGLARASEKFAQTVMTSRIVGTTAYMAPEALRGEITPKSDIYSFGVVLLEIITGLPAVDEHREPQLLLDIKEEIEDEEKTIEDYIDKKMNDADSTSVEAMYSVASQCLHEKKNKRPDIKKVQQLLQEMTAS
The target in test [13] is Serine/threonine-protein kinase D3 (Homo sapiens, UniProt O94806).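 Further: determined within a kinase panel screen, with PRKCN as the panel member.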
Serine/threonine-protein kinase D3, sequence (O94806 whole entry): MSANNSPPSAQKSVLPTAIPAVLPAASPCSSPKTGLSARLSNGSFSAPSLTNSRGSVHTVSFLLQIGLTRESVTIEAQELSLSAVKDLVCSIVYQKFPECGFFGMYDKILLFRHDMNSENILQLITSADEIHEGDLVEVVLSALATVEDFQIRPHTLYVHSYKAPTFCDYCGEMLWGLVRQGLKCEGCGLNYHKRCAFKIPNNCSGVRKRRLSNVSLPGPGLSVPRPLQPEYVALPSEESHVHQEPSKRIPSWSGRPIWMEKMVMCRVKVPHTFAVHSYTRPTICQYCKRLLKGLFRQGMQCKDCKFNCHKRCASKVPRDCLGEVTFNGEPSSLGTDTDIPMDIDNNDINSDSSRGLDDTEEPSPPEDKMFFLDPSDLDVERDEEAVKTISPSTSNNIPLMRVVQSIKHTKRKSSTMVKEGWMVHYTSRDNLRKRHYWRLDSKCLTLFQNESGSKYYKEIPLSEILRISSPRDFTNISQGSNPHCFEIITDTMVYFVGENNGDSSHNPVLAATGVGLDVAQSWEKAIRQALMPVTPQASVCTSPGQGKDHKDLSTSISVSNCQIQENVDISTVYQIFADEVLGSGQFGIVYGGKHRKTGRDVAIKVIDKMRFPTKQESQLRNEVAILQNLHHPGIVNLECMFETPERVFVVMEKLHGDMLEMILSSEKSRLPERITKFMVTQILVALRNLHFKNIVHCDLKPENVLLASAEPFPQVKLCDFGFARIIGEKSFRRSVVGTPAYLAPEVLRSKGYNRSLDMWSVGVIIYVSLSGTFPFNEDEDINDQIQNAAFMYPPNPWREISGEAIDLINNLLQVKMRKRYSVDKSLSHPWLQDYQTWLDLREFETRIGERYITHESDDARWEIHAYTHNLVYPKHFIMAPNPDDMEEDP
Test [14] addresses Serine/threonine-protein kinase pim-3 (Homo sapiens, UniProt Q86V86).
The target of test [15] is RAC-gamma serine/threonine-protein kinase (Homo sapiens, UniProt Q9Y243).
Test [16] addresses MAP kinase-activated protein kinase 3 (Homo sapiens, UniProt Q16644).
Test [17] addresses Rho-associated protein kinase 1 (Homo sapiens, UniProt Q13464).
The target in test [18] is Serine/threonine-protein kinase Nek2 (Homo sapiens, UniProt P51955).
Serine/threonine-protein kinase Nek2, sequence (P51955 whole entry): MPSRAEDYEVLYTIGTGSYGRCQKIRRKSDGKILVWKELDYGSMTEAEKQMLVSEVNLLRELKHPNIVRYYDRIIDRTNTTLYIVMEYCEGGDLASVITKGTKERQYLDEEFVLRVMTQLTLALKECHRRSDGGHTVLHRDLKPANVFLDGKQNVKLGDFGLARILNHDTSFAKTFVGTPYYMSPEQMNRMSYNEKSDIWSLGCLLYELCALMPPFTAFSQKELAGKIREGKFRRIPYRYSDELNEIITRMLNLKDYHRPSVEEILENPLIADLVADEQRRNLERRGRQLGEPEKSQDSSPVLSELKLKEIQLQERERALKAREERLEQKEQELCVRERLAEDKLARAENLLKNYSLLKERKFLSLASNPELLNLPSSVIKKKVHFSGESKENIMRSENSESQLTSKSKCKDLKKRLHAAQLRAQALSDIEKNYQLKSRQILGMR
In test [19] the target is Dual specificity tyrosine-phosphorylation-regulated kinase 1A (Homo sapiens, UniProt Q13627).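 Further: measured against DYRK1A as one member of a broad kinome profiling panel.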
Test [20] has as its target T1, Apoptotic protease-activating factor 1 (Homo sapiens, UniProt O14727).
T1 sequence (O14727 whole entry): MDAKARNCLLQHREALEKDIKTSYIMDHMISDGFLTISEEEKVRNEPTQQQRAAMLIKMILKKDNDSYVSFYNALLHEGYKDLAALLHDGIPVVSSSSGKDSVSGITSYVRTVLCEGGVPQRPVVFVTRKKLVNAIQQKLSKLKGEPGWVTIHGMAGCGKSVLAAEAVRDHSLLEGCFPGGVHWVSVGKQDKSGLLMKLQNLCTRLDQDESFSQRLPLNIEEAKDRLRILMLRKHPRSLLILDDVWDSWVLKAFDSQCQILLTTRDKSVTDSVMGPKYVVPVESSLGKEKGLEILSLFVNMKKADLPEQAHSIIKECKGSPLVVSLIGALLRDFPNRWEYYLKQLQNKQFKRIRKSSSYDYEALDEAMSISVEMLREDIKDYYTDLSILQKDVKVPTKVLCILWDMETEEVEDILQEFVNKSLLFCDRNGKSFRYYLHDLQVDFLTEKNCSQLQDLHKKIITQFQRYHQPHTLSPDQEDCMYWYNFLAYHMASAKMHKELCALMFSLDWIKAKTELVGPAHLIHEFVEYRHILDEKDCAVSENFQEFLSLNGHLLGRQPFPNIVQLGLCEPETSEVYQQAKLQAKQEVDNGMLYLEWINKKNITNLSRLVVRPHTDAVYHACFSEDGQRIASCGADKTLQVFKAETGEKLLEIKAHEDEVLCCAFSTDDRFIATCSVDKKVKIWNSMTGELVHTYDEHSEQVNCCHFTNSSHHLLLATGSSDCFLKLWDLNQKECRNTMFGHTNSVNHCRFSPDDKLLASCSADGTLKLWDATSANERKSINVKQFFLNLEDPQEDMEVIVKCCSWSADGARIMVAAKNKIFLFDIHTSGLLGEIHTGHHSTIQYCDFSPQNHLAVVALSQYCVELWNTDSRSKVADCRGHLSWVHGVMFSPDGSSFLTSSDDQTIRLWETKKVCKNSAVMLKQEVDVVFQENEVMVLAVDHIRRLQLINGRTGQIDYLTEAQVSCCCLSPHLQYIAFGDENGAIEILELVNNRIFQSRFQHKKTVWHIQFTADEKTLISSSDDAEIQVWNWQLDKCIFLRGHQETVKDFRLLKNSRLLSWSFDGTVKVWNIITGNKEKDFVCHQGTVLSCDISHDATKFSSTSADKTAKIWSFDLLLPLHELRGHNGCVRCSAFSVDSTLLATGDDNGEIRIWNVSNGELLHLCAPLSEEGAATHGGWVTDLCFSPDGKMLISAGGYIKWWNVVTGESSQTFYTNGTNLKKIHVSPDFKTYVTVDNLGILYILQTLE
In words: SAR analysis of small molecule inhibitors of Apaf-1 in a Fluorescent assay. Particulars: read-out: IC50_Mean.

The nature of test [21]: HeLa 4N DNA content increase, dose response, cell-based, IC50 (AID 1117351).
For test [22], the target named is Dual specificity tyrosine-phosphorylation-regulated kinase 4 (Homo sapiens, UniProt Q9NR20).
Test [23] has as its target Eukaryotic elongation factor 2 kinase (Homo sapiens, UniProt O00418).
The target of test [24] is Dual specificity tyrosine-phosphorylation-regulated kinase 3 (Homo sapiens, UniProt O43781).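 Further: measured as one member of a broad kinase panel.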
Dual specificity tyrosine-phosphorylation-regulated kinase 3, sequence (O43781 whole entry): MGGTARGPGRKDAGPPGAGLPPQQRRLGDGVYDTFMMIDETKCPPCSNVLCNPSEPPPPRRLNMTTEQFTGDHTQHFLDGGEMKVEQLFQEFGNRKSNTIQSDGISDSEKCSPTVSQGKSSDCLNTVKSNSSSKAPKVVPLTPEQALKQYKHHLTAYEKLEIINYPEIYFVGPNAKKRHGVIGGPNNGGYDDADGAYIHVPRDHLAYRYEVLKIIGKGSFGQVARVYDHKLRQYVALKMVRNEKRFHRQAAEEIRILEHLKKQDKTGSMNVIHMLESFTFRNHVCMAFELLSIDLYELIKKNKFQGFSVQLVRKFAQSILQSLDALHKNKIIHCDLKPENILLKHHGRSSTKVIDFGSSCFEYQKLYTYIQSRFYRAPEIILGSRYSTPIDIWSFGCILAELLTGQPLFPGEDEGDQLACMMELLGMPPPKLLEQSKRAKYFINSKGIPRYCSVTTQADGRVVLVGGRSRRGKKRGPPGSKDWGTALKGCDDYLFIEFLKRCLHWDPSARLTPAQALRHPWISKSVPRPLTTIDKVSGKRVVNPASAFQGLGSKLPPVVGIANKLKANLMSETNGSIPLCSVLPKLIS
Test [25] has as its target Protein kinase C gamma type (Homo sapiens, UniProt P05129).
The target of test [26] is Lymphokine-activated killer T-cell-originated protein kinase (Homo sapiens, UniProt Q96KB5).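 Further: value comes from a kinase panel screen in which TOPK was one of the panel members.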
Test [27] deals with G protein-coupled receptor kinase 5 (Homo sapiens, UniProt P34947). In words: Navigating the Kinome. Panel member name: GPRK5.
Test [28] can be described thus: HeLa 2N DNA content increase, dose response, cell-based, IC50 (AID 1117349).
For test [29], the target named is Testis-specific serine/threonine-protein kinase 2 (Homo sapiens, UniProt Q96PF2).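 Further: part of the Navigating the Kinome panel, target entry STK22B.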
In test [30] the target is Cell division cycle 7-related protein kinase (Homo sapiens, UniProt O00311).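 Further: value obtained from a kinome-wide kinase panel.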

In general, Ki refers to a measure of affinity in units of concentration, obtained from inhibition or displacement.

The source made the active and inactive calls.

MAP kinase-activated protein kinase 3, sequence (Q16644 whole entry): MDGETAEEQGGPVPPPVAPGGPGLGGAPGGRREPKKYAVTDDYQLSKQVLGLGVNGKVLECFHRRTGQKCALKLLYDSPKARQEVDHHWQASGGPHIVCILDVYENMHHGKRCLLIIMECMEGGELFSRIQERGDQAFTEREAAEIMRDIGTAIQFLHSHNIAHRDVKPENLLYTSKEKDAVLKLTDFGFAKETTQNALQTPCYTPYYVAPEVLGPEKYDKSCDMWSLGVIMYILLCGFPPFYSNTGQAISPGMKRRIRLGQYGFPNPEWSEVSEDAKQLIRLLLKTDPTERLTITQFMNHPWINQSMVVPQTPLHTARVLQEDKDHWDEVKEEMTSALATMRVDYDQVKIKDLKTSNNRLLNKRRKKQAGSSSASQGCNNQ
Eukaryotic elongation factor 2 kinase, sequence (O00418 whole entry): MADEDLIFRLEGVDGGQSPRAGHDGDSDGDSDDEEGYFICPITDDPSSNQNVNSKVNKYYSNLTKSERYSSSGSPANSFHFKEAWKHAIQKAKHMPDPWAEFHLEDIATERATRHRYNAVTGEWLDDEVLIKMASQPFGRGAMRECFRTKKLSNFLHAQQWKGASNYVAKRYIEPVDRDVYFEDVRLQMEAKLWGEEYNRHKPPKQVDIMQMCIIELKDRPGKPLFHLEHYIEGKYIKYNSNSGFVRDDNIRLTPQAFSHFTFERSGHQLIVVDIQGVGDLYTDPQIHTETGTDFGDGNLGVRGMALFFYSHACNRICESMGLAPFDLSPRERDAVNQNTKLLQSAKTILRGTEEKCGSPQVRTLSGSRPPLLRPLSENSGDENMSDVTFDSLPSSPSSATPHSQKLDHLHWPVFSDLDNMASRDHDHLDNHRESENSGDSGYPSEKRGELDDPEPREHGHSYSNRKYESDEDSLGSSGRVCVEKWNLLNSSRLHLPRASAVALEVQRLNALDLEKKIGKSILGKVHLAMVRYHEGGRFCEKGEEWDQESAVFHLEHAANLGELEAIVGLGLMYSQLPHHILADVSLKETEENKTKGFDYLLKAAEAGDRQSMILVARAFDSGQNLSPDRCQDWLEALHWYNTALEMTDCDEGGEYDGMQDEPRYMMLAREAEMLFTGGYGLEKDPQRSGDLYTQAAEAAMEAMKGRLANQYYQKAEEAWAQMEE
Serine/threonine-protein kinase TAO1, sequence (Q7L7X3 whole entry): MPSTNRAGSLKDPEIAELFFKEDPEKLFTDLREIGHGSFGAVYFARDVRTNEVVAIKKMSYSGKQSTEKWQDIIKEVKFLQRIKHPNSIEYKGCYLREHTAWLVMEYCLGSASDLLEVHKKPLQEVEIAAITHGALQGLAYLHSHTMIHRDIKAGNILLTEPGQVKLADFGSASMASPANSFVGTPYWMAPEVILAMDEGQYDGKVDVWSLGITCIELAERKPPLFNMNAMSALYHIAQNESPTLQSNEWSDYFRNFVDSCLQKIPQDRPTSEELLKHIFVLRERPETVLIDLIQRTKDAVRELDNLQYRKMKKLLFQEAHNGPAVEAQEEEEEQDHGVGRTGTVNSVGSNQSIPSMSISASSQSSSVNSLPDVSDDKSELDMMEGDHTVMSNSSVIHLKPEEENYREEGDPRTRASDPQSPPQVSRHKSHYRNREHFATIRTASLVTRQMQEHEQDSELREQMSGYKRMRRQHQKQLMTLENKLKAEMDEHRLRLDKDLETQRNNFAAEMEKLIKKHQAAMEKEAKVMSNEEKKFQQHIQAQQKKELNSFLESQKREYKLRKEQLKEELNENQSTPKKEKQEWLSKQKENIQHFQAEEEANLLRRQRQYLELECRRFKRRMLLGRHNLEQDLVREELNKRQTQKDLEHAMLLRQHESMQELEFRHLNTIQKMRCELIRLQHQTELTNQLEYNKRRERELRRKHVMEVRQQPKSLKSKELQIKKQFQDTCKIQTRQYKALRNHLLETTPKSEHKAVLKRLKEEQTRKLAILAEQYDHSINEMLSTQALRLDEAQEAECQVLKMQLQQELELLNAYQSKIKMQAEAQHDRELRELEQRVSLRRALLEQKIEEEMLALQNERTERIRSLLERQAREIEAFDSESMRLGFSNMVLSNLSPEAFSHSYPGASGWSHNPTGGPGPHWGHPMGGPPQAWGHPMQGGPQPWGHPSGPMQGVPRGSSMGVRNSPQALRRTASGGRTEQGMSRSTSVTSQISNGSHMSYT

Turning to `COc1ccc(C=C2SC(=Nc3ccccc3)NC2=O)cc1OC`, the Ki in test [1] was > 10 µM (inactive); in [2] it was > 10 µM (inactive); in [3] it was > 10 µM (inactive); in test [4] it was > 10 µM (inactive); in test [5] it was 6.31 µM (active); in [6], > 10 µM (inactive). The Ki at LIM domain kinase 1 was > 10 µM (inactive); in test [7] it was 3.98 µM (active); in [8], > 10 µM (inactive); in [9], 6.31 µM (active); in test [10], > 10 µM (inactive); in [11], 1.58 µM (active). The Ki in test [12] is > 10 µM (inactive); in [13], > 10 µM (inactive); in test [14], 1 µM (active); in test [15], > 10 µM (inactive); in [16] it was > 10 µM (inactive); in [17], > 10 µM (inactive). Besides, the Ki in test [18] is > 10 µM (inactive); in [19], 6.31 µM (active).

For `Cc1ccc(-c2nc3cc(NC(=O)c4cccs4)ccc3[nH]2)o1`, in [20], the IC50 was > 100 µM (inactive).

As to `Cc1nc(Nc2ncc(C(=O)Nc3c(C)cccc3Cl)s2)cc(N2CCN(CCO)CC2)n1` [DASATINIB], the IC50 in [21] and in [28] was > 10 µM (inactive) in each case. In addition, the Ki in [22] was > 7.94 µM (inactive); in [23], > 3.98 µM (inactive); in [24], 1.26 µM (active); in test [25], > 7.94 µM (inactive); in [26] it was > 10 µM (inactive); in test [27], > 3.98 µM (inactive). Further, the Ki was > 10 µM (inactive) in test [16], > 1.58 µM (inactive) in test [29] and > 1.26 µM (inactive) in test [30].
